In ChEMBL document CHEMBL1221172, “Identification of a specific inhibitor of the histone methyltransferase SU(VAR)3-9” (Nat Chem Biol, 2005):
Active and inactive are the calls of the source. No cut-off for these calls is given here.

Tests used:
SL-2 [1] = assay: Cytotoxicity against Drosophila melanogaster SL-2 cells seeded at high density assessed as growth retardation for 24 to 48 hrs up to 0.5 uM; assay type: cell-based
SL-2 [2] = assay: Cytotoxicity against Drosophila melanogaster SL-2 cells seeded at low density; assay type: cell-based
[3] = target: T1, Histone-lysine N-methyltransferase Set8 (Drosophila melanogaster, UniProt Q9VFK6); assay: Inhibition of Drosophila melanogaster PRSET2
T1 sequence (Q9VFK6 whole entry): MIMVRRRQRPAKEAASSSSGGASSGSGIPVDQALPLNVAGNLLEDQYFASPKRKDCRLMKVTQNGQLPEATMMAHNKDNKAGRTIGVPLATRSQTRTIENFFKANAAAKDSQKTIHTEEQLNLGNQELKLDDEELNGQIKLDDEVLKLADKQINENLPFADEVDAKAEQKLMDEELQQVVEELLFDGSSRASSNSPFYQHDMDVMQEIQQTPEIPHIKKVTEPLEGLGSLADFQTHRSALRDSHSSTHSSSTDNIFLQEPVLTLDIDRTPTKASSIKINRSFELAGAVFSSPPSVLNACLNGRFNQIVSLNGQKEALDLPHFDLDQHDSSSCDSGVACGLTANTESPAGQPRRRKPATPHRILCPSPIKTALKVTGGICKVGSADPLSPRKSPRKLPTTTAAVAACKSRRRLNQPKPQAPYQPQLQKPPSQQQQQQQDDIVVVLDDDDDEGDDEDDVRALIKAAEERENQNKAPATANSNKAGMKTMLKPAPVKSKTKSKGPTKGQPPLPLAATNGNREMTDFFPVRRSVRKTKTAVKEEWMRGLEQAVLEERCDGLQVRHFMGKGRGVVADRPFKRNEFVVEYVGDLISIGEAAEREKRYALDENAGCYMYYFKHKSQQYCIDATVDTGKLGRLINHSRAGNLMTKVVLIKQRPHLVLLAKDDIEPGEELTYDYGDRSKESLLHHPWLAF

[4] = Inhibition of Drosophila melanogaster SET7/9
[5] = target: Histone-lysine N-methyltransferase E(z) (Drosophila melanogaster, UniProt P42124); assay: Inhibition of Drosophila melanogaster histone-lysine N-methyl-transferase E(z)
Sequence of Histone-lysine N-methyltransferase E(z) (P42124 whole entry): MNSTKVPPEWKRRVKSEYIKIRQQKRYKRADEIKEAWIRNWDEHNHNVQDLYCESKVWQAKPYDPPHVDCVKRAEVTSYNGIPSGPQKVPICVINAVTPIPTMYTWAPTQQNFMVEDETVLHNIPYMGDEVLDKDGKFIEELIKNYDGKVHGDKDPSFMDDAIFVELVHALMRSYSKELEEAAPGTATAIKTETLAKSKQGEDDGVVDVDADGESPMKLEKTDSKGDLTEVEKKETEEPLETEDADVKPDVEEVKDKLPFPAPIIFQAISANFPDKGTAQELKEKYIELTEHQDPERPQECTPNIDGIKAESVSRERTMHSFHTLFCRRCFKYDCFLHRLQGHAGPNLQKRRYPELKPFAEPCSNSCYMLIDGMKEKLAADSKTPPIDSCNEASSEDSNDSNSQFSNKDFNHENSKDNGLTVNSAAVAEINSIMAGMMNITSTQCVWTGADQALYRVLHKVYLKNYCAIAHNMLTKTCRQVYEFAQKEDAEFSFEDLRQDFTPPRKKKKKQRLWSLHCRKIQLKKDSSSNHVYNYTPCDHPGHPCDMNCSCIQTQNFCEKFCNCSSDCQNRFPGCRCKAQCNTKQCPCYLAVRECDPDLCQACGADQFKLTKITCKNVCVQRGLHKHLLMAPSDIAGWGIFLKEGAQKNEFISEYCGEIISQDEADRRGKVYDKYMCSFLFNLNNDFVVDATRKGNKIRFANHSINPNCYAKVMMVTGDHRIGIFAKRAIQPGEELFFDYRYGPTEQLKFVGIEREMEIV

[6] = target: T2, Histone-lysine N-methyltransferase EHMT2 (Mus musculus, UniProt Q9Z148); assay: Inhibition of mouse G9a
T2 sequence (Q9Z148 whole entry): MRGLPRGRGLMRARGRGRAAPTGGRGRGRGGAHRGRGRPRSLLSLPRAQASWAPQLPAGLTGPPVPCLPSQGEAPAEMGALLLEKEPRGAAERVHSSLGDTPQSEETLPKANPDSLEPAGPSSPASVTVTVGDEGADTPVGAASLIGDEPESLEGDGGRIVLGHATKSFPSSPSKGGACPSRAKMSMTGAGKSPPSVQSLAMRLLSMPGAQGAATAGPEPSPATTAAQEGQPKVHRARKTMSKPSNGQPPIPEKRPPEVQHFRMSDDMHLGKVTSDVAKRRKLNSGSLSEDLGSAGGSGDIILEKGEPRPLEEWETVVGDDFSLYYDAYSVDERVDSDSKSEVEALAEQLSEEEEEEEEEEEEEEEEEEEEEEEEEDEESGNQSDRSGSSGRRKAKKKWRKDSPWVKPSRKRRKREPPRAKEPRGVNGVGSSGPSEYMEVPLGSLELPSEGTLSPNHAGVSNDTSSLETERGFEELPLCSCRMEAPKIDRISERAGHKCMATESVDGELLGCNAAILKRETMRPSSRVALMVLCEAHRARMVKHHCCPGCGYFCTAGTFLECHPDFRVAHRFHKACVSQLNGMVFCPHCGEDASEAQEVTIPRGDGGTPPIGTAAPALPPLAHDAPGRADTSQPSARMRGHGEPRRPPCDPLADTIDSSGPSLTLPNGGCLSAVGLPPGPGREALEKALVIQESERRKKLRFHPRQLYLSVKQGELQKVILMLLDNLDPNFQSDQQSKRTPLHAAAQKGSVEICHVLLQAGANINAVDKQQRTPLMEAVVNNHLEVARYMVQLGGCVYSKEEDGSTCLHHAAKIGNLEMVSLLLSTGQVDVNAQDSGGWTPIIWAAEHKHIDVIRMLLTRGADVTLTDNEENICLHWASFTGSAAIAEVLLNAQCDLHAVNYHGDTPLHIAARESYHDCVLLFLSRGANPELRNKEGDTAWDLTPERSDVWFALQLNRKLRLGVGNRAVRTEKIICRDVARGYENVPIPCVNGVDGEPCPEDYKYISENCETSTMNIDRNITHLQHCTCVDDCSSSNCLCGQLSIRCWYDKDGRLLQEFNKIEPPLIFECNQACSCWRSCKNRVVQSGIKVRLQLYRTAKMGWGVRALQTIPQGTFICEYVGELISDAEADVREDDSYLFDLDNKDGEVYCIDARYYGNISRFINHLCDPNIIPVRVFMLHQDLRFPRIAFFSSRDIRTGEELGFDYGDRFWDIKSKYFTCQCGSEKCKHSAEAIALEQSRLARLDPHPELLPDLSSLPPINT

[7] = target: T3, Histone-lysine N-methyltransferase, H3 lysine-9 specific dim-5 (Neurospora crassa, UniProt Q8X225); assay: Inhibition of Neurospora crassa DIM5
T3 sequence (Q8X225 whole entry): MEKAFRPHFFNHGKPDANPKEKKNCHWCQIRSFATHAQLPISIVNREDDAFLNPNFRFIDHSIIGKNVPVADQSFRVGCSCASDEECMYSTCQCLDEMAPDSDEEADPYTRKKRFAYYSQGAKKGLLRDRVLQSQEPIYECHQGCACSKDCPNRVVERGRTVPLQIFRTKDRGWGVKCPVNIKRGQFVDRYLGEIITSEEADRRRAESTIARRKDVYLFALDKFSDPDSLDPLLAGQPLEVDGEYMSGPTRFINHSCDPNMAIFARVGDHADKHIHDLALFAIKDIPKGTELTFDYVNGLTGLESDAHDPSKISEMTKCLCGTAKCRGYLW

[8] = Inhibition of human SU(VAR)3-9
[9] = target: Histone-lysine N-methyltransferase Su(var)3-9 (Drosophila melanogaster, UniProt P45975); assay: Inhibition of Drosophila melanogaster SU(VAR)3-9
Sequence of Histone-lysine N-methyltransferase Su(var)3-9 (P45975 whole entry): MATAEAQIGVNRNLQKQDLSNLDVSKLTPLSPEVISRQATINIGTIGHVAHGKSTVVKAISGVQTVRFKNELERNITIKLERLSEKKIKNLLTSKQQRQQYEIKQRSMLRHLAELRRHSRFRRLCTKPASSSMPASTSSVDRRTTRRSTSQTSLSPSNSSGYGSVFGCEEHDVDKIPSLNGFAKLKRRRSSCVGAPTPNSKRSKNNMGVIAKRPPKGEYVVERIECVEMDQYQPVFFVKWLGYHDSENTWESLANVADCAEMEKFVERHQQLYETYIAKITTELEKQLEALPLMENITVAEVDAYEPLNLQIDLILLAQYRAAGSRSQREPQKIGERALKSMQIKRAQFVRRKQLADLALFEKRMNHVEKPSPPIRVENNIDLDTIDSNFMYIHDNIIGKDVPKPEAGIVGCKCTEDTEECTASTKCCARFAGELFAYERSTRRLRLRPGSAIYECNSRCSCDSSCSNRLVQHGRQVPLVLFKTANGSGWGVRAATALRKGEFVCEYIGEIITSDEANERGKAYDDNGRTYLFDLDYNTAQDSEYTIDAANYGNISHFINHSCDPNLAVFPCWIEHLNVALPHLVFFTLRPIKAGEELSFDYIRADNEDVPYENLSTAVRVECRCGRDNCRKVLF

[10] = target: Histone-lysine N-methyltransferase Su(var)3-9 (Drosophila melanogaster) (UniProt P45975); details: SL2, 0.5 uM
Sequence of Histone-lysine N-methyltransferase Su(var)3-9 (Drosophila melanogaster) (P45975 whole entry): as above
Description: Inhibition of SU(VAR)3-9 in Drosophila melanogaster SL2 cells assessed as inhibition of methylation at Lys36 in Histone H3 at 0.5 uM by MALDI-TOF MS

[11] = target: Histone-lysine N-methyltransferase Su(var)3-9 (Drosophila melanogaster) (UniProt P45975); details: SL2, 0.5 uM; remark: listed apart in the source
Description: Inhibition of SU(VAR)3-9 in Drosophila melanogaster SL2 cells assessed as inhibition of methylation at Lys27 in Histone H3 at 0.5 uM by MALDI-TOF MS

[12] = target: Histone-lysine N-methyltransferase Su(var)3-9 (Drosophila melanogaster) (UniProt P45975); details: SL2, 0.5 uM; remark: listed apart in the source
Description: Inhibition of SU(VAR)3-9 in Drosophila melanogaster SL2 cells assessed as inhibition of methylation at Lys4in Histone H3 at 0.5 uM by Western blot method

[13] = target: Histone-lysine N-methyltransferase Su(var)3-9 (Drosophila melanogaster) (UniProt P45975); details: SL2, 0.5 uM; remark: listed apart in the source
Description: Inhibition of SU(VAR)3-9 in Drosophila melanogaster SL2 cells assessed as inhibition of methylation at Lys79in Histone H3 at 0.5 uM by Western blot method

[14] = target: Histone-lysine N-methyltransferase Su(var)3-9 (Drosophila melanogaster) (UniProt P45975); details: SL2, 0.5 uM; remark: listed apart in the source
Description: Inhibition of SU(VAR)3-9 in Drosophila melanogaster SL2 cells assessed as inhibition of methylation at Lys36 in Histone H3 at 0.5 uM by Western blot method

[15] = target: Histone-lysine N-methyltransferase Su(var)3-9 (Drosophila melanogaster) (UniProt P45975); details: SL2, 0.5 uM; remark: listed apart in the source
Description: Inhibition of SU(VAR)3-9 in Drosophila melanogaster SL2 cells assessed as inhibition of methylation at Lys27 in Histone H3 at 0.5 uM by Western blot method

[16] = target: Histone-lysine N-methyltransferase Su(var)3-9 (Drosophila melanogaster) (UniProt P45975); details: SL2, 0.5 uM; remark: listed apart in the source
Description: Inhibition of SU(VAR)3-9 in Drosophila melanogaster SL2 cells assessed as reduction of H3K9me3 at 0.5 uM by immunostaining method

[17] = target: Histone-lysine N-methyltransferase Su(var)3-9 (Drosophila melanogaster) (UniProt P45975); details: SL2, 0.1 uM
Description: Inhibition of SU(VAR)3-9 in Drosophila melanogaster SL2 cells assessed as reduction of H3K9me2 at 0.1 uM after 5 days by MALDI-TOF MS seeded at 2.5 million cells/ml density

[18] = target: Histone-lysine N-methyltransferase Su(var)3-9 (Drosophila melanogaster) (UniProt P45975); details: SL2, 0.5 uM; remark: listed apart in the source
Description: Inhibition of SU(VAR)3-9 in Drosophila melanogaster SL2 cells assessed as reduction of H3K9me2 at 0.5 uM after 5 days by MALDI-TOF MS seeded at 2.5 million cells/ml density

[19] = target: Histone-lysine N-methyltransferase Su(var)3-9 (Drosophila melanogaster) (UniProt P45975); details: SL2, 0.5 uM; remark: listed apart in the source
Description: Inhibition of SU(VAR)3-9 in Drosophila melanogaster SL2 cells assessed as inhibition of methylation at Lys79in Histone H3 at 0.5 uM by MALDI-TOF MS

[20] = target: Histone-lysine N-methyltransferase Su(var)3-9 (Drosophila melanogaster) (UniProt P45975); details: SL2, 0.5 uM; remark: listed apart in the source
Description: Inhibition of SU(VAR)3-9 in Drosophila melanogaster SL2 cells assessed as inhibition of methylation at Lys4in Histone H3 at 0.5 uM by MALDI-TOF MS

SMILES: CN1C(=O)[C@@]23C[C@]4([C@]56C[C@@]78SS[C@@](CO)(C(=O)N7[C@H]5Nc5ccccc56)N(C)C8=O)c5ccccc5N[C@@H]4N2C(=O)[C@]1(CO)SS3 [CHAETOCIN]
- Activity (SL-2 [1]): Non-toxic
- Activity (SL-2 [2]): Toxic
- IC50 [3]: > 180 µM
- IC50 [4]: > 180 µM
- IC50 [5]: > 90 µM
- IC50 [6]: 2.5 µM
- IC50 [7]: 3 µM
- IC50 [8]: 0.8 µM
- IC50 [9]: 0.6 µM
- inhibition [10]: inactive
- inhibition [11]: inactive
- inhibition [12]: inactive
- inhibition [13]: inactive
- inhibition [14]: inactive
- inhibition [15]: inactive
- inhibition [16]: Active
- inhibition [17]: Active
- inhibition [18]: Active
- inhibition [19]: inactive
- inhibition [20]: inactive
